This series deals with HEK-293T. The experiment in a line: Incucyte cell viability with HEK293T. Further: filed as whole numbers so only -1 and 0 and 1 occur. In kind it is toxicity, cell-based. To be noted: human, 10 µM, compound concentration 10 uM.
[1] abbreviates: 0 h, replicate number 2, timepoint 0 hours.
[2] abbreviates: 6 h, replicate number 1, timepoint 6 hours.
[3] abbreviates: 12 h, replicate number 1, timepoint 12 hours.
Setting [4] is: 18 h, replicate number 1, timepoint 18 hours.
The mark [5] stands for this setting: 24 h, replicate number 1, timepoint 24 hours.
[6] abbreviates: 0 h, replicate number 1, timepoint 0 hours.
The mark [7] stands for this setting: 12 h, replicate number 2, timepoint 12 hours.
Setting [8] is: 6 h, replicate number 2, timepoint 6 hours.

SMILES strings stand for the structures.

In the case of `CC(C)c1noc(N2CCC(COc3ccc(-c4ccc(S(C)(=O)=O)cc4)nc3)CC2)n1` [GSK-1292263], the “Growth Rate” value is 0 under setting [1]; 0 under setting [2]; 0 under setting [3]; 0 under setting [4]; 0 under setting [5].
For `CC(C)OC(=O)N1CCC(Oc2ncnc3c2cnn3-c2ccc(S(C)(=O)=O)cc2F)CC1`, the “Growth Rate” value reads like this: under setting [1], 1; under setting [2], 0; under setting [3], 0; under setting [4], 0; under setting [5], 0.
Regarding `C=CC(=O)Nc1ccc2[nH]c(=O)n(C3CCN(Cc4ccc(-c5nc6cc[nH]c(=O)c6cc5-c5ccccc5)cc4)CC3)c2c1` [Borussertib], the “Growth Rate” value was 0 under setting [6]; 1 under setting [1]; 0 under setting [2]; 0 under setting [3]; 0 under setting [4]; 0 under setting [5].
As for `CNCc1ccccc1-c1csc([C@@H](C)Nc2nc(C)nc3cc(OC)c(OC)cc23)c1` [BAY-293], the “Growth Rate” value by setting is: under setting [2], 0; under setting [3], 0; under setting [4], 0; under setting [5], 0.
Take `CCc1ccc(OCc2ccccc2C(=O)Nc2ccc3nc(C)cc(N)c3c2)cc1.Cl`: the “Growth Rate” value runs as follows: under setting [2], 0; under setting [3], 0; under setting [4], 0; under setting [5], 0.
Turning to `C=CC(=O)Nc1cccc(Oc2nc(Nc3ccc(N4CCN(C)CC4)cc3OC)ncc2Cl)c1`, the “Growth Rate” value reads like this: under setting [2], 0; under setting [3], 0; under setting [4], 0; under setting [5], 0.
Regarding `CC1=C(C(=O)Nc2cc3cn[nH]c3cc2F)C(c2ccc(C(F)(F)F)cc2)CC(=O)N1` (stereo not given), the “Growth Rate” value under setting [6] is 0 and the “Growth Rate” value under setting [5] was found to be 1.
Turning to `CCc1nn(CCCN2CCN(c3cccc(Cl)c3)CC2)c(=O)n1CCOc1ccccc1.Cl` [NEFAZODONE HYDROCHLORIDE], the “Growth Rate” value by setting is: under setting [1], 0; under setting [2], 0; under setting [3], 0; under setting [4], 0; under setting [5], 0.
Regarding `COc1cc(Nc2nccc(-c3cnn4nc(OC)ccc34)n2)cc(C(F)(F)F)c1`, the “Growth Rate” value under setting [2] was 0, the “Growth Rate” value under setting [3] turned out to be 0, the “Growth Rate” value under setting [4] was 0 and the “Growth Rate” value under setting [5] is recorded as 0.
As for `Cc1nc(N2CC[C@H](O)C2)ncc1-c1cc(C(F)(F)F)cc2[nH]ncc12`, the “Growth Rate” value runs as follows: under setting [6], 1; under setting [2], 0; under setting [3], 0; under setting [4], 0; under setting [5], 0.
As for `CC(C)(C)NC[C@H](O)COc1nsnc1N1CCOCC1` [TIMOLOL], the “Growth Rate” value was found to be 0 under setting [6]; 0 under setting [2]; 0 under setting [3]; 1 under setting [7]; 0 under setting [4]; 0 under setting [5].
For `COc1ccc(-c2ccc3ncc4c(c3c2)n(-c2ccc(N3CCNCC3)c(C(F)(F)F)c2)c(=O)n4C)cn1.O=C(O)/C=C\C(=O)O` [BGT-226], the “Growth Rate” value runs as follows: under setting [2], 0; under setting [3], 0; under setting [4], 0; under setting [5], 0.
On to `CNC(=O)Nc1ccc(-c2nc(N3CC4CCC(C3)O4)c3cnn(C4CCC5(CC4)OCCO5)c3n2)cc1`, for which the “Growth Rate” value by setting is: under setting [2], 0; under setting [3], 0; under setting [4], 0; under setting [5], 0.
On to `O=c1cc(N2CCOCC2)oc2c(-c3cccc4c3sc3ccccc34)cccc12`, for which the “Growth Rate” value came out at 0 under setting [2], 0 under setting [3], 0 under setting [4] and 0 under setting [5].
Consider `Cc1ccc2c(c1)c1c(n2CCc2ccc(C)nc2)CCN(C)C1` [LATREPIRDINE], for which the “Growth Rate” value is given as 0 under setting [1]; 0 under setting [2]; 0 under setting [3]; 0 under setting [4]; 0 under setting [5].
Turning to `Cc1cc(NC(=O)c2cccc(S(F)(F)(F)(F)F)c2)cc(-n2ccn3nc(-c4cccnc4)cc23)c1` [BAY-309], the “Growth Rate” value came out at 1 under setting [6]; 0 under setting [2]; 0 under setting [3]; 0 under setting [4]; 0 under setting [5].
For the compound `Cl.O=C(O)c1cc(-c2ccc(C3CCNCC3)cc2)c2ccc(-c3ccc(C(F)(F)F)cc3)cc2c1`, the “Growth Rate” value is, setting by setting: under setting [6], 0; under setting [2], 0; under setting [8], 1; under setting [3], 0; under setting [4], 0; under setting [5], 0.
For `CCCSc1nc(N[C@@H]2C[C@H]2c2ccc(F)c(F)c2)c2nnn([C@@H]3C[C@H](OCCO)[C@@H](O)[C@H]3O)c2n1` [TICAGRELOR], the “Growth Rate” value by setting is: under setting [1], 0; under setting [2], 0; under setting [3], 0; under setting [4], 0; under setting [5], 0.
`CC(C)CC(=O)Nc1[nH]nc2c1CN(C(=O)C1CCN(C)CC1)C2(C)C` [PHA-793887]: the “Growth Rate” value under setting [6] is listed as 1; the “Growth Rate” value under setting [2] was found to be 0; the “Growth Rate” value under setting [3] is reported as 0; the “Growth Rate” value under setting [4] turned out to be 0; the “Growth Rate” value under setting [5] was determined as 0.
Regarding `C=CC(=O)Nc1cccc(Sc2nc(Nc3ccc(N4CCN(C)CC4)cc3)ncc2Cl)c1`, the “Growth Rate” value by setting is: under setting [2], 0; under setting [3], 0; under setting [4], 0; under setting [5], 0.
On to `Cc1cccc(CN2CCN(C(c3ccccc3)c3ccc(Cl)cc3)CC2)c1.Cl.Cl` (stereo not given), for which the “Growth Rate” value is listed as 1 under setting [6]; 0 under setting [1]; 0 under setting [2]; 0 under setting [3]; 0 under setting [4]; 0 under setting [5].
In the case of `CN(c1ccccc1CNc1nc(Nc2ccc3c(c2)CC(=O)N3)ncc1C(F)(F)F)S(C)(=O)=O`, the “Growth Rate” value by setting is: under setting [2], 0; under setting [3], 0; under setting [4], 0; under setting [5], 0.
For `O=c1[nH]c2ccccc2n1C1CCN(Cc2ccc(-c3[nH]c4cc5ncnc5cc4nc3-c3ccccc3)cc2)CC1`, the “Growth Rate” value under setting [1] stood at 1; the “Growth Rate” value under setting [2] amounted to 0; the “Growth Rate” value under setting [3] was 0; the “Growth Rate” value under setting [4] came to 0; the “Growth Rate” value under setting [5] was determined as 0.
Consider `Cc1c[nH]c2nccc(Oc3c(F)cc(Nc4cc(Cl)nc(N)n4)cc3F)c12` [BAY-549], for which the “Growth Rate” value is given as 0 under setting [6]; 0 under setting [2]; 0 under setting [3]; 0 under setting [4]; 0 under setting [5].
With `O=C(c1cc2c(cc1F)OC(c1ccc(F)cc1)(c1ccc(Cl)cc1Cl)O2)N1CCOCC1` (stereo not given), the “Growth Rate” value by setting is: under setting [6], 0; under setting [2], 0; under setting [3], 0; under setting [4], 0; under setting [5], 0.
Take `CN1CCN(Cc2ccc(Nc3ncc(Cl)c(Nc4ccccc4S(=O)(=O)N(C)C)n3)cc2)CC1` [DUBERMATINIB]: the “Growth Rate” value under setting [6] turned out to be 0; the “Growth Rate” value under setting [1] came out at 1; the “Growth Rate” value under setting [8] is 0; the “Growth Rate” value under setting [3] turned out to be 1; the “Growth Rate” value under setting [7] was found to be 0; the “Growth Rate” value under setting [4] is given as 0. Also, under setting [5], the “Growth Rate” value was found to be 0.
As for `CN1CCN(Cc2cc(NC(=O)c3ccc4c(c3)CN(c3ccccc3)CC4)cc(C(F)(F)F)c2)CC1`, the “Growth Rate” value under setting [2] turned out to be 0, the “Growth Rate” value under setting [3] came to 0, the “Growth Rate” value under setting [4] is 0 and the “Growth Rate” value under setting [5] was 0.
On to `COc1ccccc1CN[C@H]1C2CCN(CC2)[C@H]1C(c1ccccc1)c1ccccc1` [CP-96345], for which the “Growth Rate” value came out at 1 under setting [6]; 0 under setting [1]; 0 under setting [2]; 0 under setting [3]; 0 under setting [4]; 0 under setting [5].
In the case of `CNC(=O)c1ccc(Nc2ncc(C(F)(F)F)c(NCc3nccnc3N(C)S(C)(=O)=O)n2)cc1` [DEFACTINIB], the “Growth Rate” value is, setting by setting: under setting [6], 1; under setting [2], 0; under setting [3], 0; under setting [4], 0; under setting [5], 0.
For `CC(C)Oc1ccccc1C(=O)Nc1ccccc1C(=O)Nc1cccc(S(=O)(=O)C(F)(F)F)c1`, the “Growth Rate” value runs as follows: under setting [6], 0; under setting [2], 0; under setting [3], 0; under setting [4], 0; under setting [5], 0.
With `Cc1cc(C)c(-n2ccn3nc(-c4cccnc4)cc23)cc1NC(=O)c1cc(C#N)cc(S(F)(F)(F)(F)F)c1` [BAY-826], the “Growth Rate” value is, setting by setting: under setting [6], 0; under setting [2], 0; under setting [3], 0; under setting [4], 0; under setting [5], 0.
As for `CNC(=O)Nc1ccc2c(c1)[C@@]1(CC2)OC(=O)N(CC(=O)N(Cc2ccc(F)cc2)[C@@H](C)C(F)(F)F)C1=O` [A-486], the “Growth Rate” value under setting [6] was 1; the “Growth Rate” value under setting [2] is recorded as 0; the “Growth Rate” value under setting [3] stood at 0; the “Growth Rate” value under setting [4] came out at 0; the “Growth Rate” value under setting [5] turned out to be 0.
For `COC(=O)C1=C(C)NC(C)=C(C(=O)OCCCN2CCC(c3ccccc3)(c3ccccc3)CC2)[C@H]1c1cccc([N+](=O)[O-])c1` [NIGULDIPINE], the “Growth Rate” value is 0 under setting [1]; 0 under setting [2]; 0 under setting [3]; 0 under setting [4]; 0 under setting [5].
Consider `C[C@]12CC[C@@H]3c4ccc(O)cc4CC[C@H]3[C@@H]1CC[C@@H]2O` [ESTRADIOL], for which the “Growth Rate” value worked out at 1 under setting [6]; 0 under setting [1]; 0 under setting [2]; 0 under setting [3]; 0 under setting [4]; 0 under setting [5].
On to `COc1cc2ncn(-c3cc(OCc4ccccc4C(F)(F)F)c(C(N)=O)s3)c2cc1OC` [GW843682X], for which the “Growth Rate” value is, setting by setting: under setting [6], 0; under setting [3], 0; under setting [4], 0; under setting [5], 0.
In the case of `CC(C)NC(=O)N1CC[C@H](NC2=Nc3cc(F)ccc3N(CC(F)F)c3ccc(Cl)cc32)C1`, the “Growth Rate” value is reported as 0 under setting [6]; 0 under setting [8]; 1 under setting [3]; 1 under setting [4]; 1 under setting [5]; 0 (24 h, replicate number 2, timepoint 24 hours).

For the origin of these results see ChEMBL document CHEMBL4689842, “EUbOPEN Chemogenomics Library wave 1” (2021).
